{"source": "paper PMC9823088", "about": "“The oral selective estrogen receptor degrader GDC-0810 (ARN-810) in postmenopausal women with hormone receptor-positive HER2-negative (HR + /HER2 −) advanced/metastatic breast cancer” (Breast Cancer Research and Treatment, 2022)", "key": {"[1]": {"assay": "Plasma pharmacokinetics of GDC-0810 and glucuronide metabolites", "format": "in vivo, human", "description": "Blood samples were collected for pharmacokinetic assessments. Tumor assessments were performed at screening and every 8 weeks from cycle 1, day 1 (C1D1). Radiographic assessment of objective tumor response or disease progression was based on Response Evaluation Criteria in Solid Tumors (RECIST v1.1). Transvaginal ultrasound scans were performed to monitor endometrial thickness at screening, at every 6 months from C1D1, and at the end of treatment. Imaging with [^18F]-fluoroestradiol positron emission tomography (FES-PET) was performed to quantify ER expression in tumors and to assess for pharmacodynamic response. Further assessment details are provided in Supplementary Methods.\nCYP2B6 and CYP2C enzymes. […]\n(§1) Blood samples were collected for pharmacokinetic assessment on lead-in day −7 and cycle 2 day 1 (C2D1) at predose (0 hour) and postdose (0.5, 1, 1.5, 2, 3, 4, 6, 8, and 24 hours), (plus at 48 hours postdose for day−7). Full plasma pharmacokinetic profiles were obtained for GDC-0810 and its glucuronide metabolites (acyl-glucuronide and N-glucuronide) using a validated liquid chromatography/ tandem mass spectrometry method, and analyzed using non-compartmental methods for all patients in the dose escalation cohorts.\nTumor assessments were performed at screening and every 8 weeks from cycle-1, day-1 […]"}, "ER and Ki-67": {"tested_on": "ER and Ki-67", "assay": "Paired tumor biopsies, ER protein levels and Ki-67", "format": "in vivo, human", "conditions": "after one cycle (28 days of treatment); samples from 3 patients only, no conclusions could be drawn", "description": "CYP2B6 and CYP2C enzymes. No hormonal therapy, chemotherapy, immunotherapy, or experimental anti-cancer medications were permitted during the study.\nas §1\nTumor assessments were performed at screening and every 8 weeks from cycle-1, day-1 (C1D1). Radiographic assessment of objective tumor response or disease progression was based on Response Evaluation Criteria in Solid Tumors (RECIST v1.1). […] Imaging with [18F]-fluoroestradiol positron emission tomography (FES-PET) was performed to quantify ER expression in tumors and to assess for pharmacodynamic response. […]\nIn phase IIa cohort A1 patients, FES-PET scans were acquired at screening and on C3D3 at 18-24 hours post the C3D2 dose. […] The mean percent change from baseline in SUVmax (corrected for background activity) for up to five index lesions was calculated for each patient; more details are presented in (1). […]"}}, "data": [{"smiles": "CC/C(=C(/c1ccc(/C=C/C(=O)O)cc1)c1ccc2[nH]ncc2c1)c1ccc(F)cc1Cl", "note": "[GDC-0810]", "values": [{"measurement": "average exposure at steady state (AUC0-24 h), non-fasted compared to fasted", "setting": "[1]; 600 mg QD", "result": 1.5, "unit": "fold"}, {"measurement": "average exposure at steady state (Cmax), non-fasted compared to fasted", "setting": "[1]; 600 mg QD", "result": "twofold"}, {"measurement": "drug accumulation", "setting": "[1]; following multiple dosing", "result": "Minimal drug accumulation"}, {"measurement": "half-life", "setting": "[1]; human, plasma, oral, 600-mg QD, non-fasted condition, read-out: mean terminal half-life (converted)", "result": "~8", "unit": "h"}, {"measurement": "Tmax", "setting": "[1]; human, plasma, oral, after dosing, read-out: median Tmax", "result": "1 to 3", "unit": "h"}, {"measurement": "pharmacokinetic profile", "setting": "[1]; up to 600 mg", "result": "linear and dose proportional"}, {"measurement": "ER and Ki-67 levels in tumor specimens", "setting": "ER and Ki-67", "result": "reduced ER and Ki-67 levels"}]}]}
